The text below walks through data of US7589104B2, “Tricyclic-bridged piperidinyline derivatives as §-opioid modulators” (Janssen Pharmaceutica NV, priority 2004, dated 2009).

The target in this assay is T1, delta opioid receptor (Rattus norvegicus, UniProt P33533).
T1 construct: from tissue; host or cells: forebrain of male Wistar rats (Charles River)
In words: Rat Brain Delta Opioid Receptor Binding Assay.

T1 sequence (P33533 whole entry): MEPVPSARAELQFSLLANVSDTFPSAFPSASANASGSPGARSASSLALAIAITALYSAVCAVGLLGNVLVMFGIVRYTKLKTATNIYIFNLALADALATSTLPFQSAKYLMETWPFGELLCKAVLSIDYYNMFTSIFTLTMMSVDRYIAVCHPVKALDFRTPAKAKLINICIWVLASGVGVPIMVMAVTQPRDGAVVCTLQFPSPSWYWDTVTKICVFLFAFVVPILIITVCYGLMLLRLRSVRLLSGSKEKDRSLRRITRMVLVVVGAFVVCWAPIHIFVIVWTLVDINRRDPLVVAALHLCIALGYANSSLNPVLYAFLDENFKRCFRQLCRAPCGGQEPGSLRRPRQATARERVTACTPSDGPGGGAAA

As usually defined, the Ki is the equilibrium dissociation constant of an inhibitor or competing ligand from its target. A lower Ki goes with tighter binding. Compound `O=c1[nH]c(-c2ccc3c(c2)Oc2ccccc2C3C2CCNCC2)no1` (stereo not shown) [Compound 2n, 3-(9-Piperidin-4-yl-9H-xanthen-3-yl)-4H-[1,2,4]oxadiazol-5-one] displayed a Ki of 1300 nM.

`O=C(c1ccc2c(c1)Oc1ccccc1C2C1CC2CCC(C1)N2)N1CCC(O)C1` (stereo not shown) [Compound 3o, [9-(8-Aza-bicyclo[3.2.1]oct-3-yl)-9H-xanthen-3-yl]-(3-hydroxy-pyrrolidin-1-yl)-methanone] returned a Ki of 1210 nM.

With `CC(=O)Nc1ccccc1-c1ccc2c(c1)Oc1c(O)cccc1C2C1CC2CCC(C1)N2Cc1ccoc1` (stereo not shown) [Compound 4l, N-{2-[9-(8-Furan-3-ylmethyl-8-aza-bicyclo[3.2.1]oct-3-yl)-5-hydroxy-9H-xanthen-3-yl]-phenyl}-acetamide], affinity was put at a Ki of 22.2 nM.

In turn, `CCN(CC)C(=N)c1ccc2c(c1)Oc1ccccc1C2C1CC2CCC(C1)N2` (stereo not shown) [Compound 4m, 9-(8-Aza-bicyclo[3.2.1]oct-3-yl)-N,N-diethyl-9H-xanthene-3-carboxamidine] came in with a Ki of 208 nM.

Consider `CC(=O)Nc1ccccc1-c1ccc2c(c1)Oc1c(O)cccc1C2C1CC2CCC(C1)N2Cc1cccs1` (stereo not shown) [Compound 5l, N-{2-[5-Hydroxy-9-(8-thiophen-2-ylmethyl-8-aza-bicyclo[3.2.1]oct-3-yl)-9H-xanthen-3-yl]-phenyl}-acetamide], for which the inhibition constant (Ki) amounted to 6.51 nM. Compared with the last compound, the Ki is about 32-fold lower.

As to `CCN(CC)C(=N)c1ccc2c(c1)Oc1ccccc1C2C1CC2CCC(C1)N2Cc1ccoc1` (stereo not shown) [Compound 5m, N,N-Diethyl-9-(8-furan-3-ylmethyl-8-aza-bicyclo[3.2.1]oct-3-yl)-9H-xanthene-3-carboxamidine], the affinity corresponds to a Ki of 234 nM. This Ki is about 36-fold higher than that of the compound before.

In turn, `c1ccc2c(c1)Oc1cc(-c3nnn[nH]3)ccc1C2C1CC2CCC(C1)N2Cc1ccoc1` (stereo not shown) [Compound 6j, 8-Furan-3-ylmethyl-3-[3-(1H-tetrazol-5-yl)-9H-xanthen-9-yl]-8-aza-bicyclo[3.2.1]octane] yielded a Ki of 20.6 nM. Against the preceding compound, the Ki is about 11-fold lower.

`CC(=O)Nc1ccccc1-c1ccc2c(c1)Oc1c(O)cccc1C2C1CC2CCC(C1)N2Cc1ccccn1` (stereo not shown) [Compound 6l, N-{2-[5-Hydroxy-9-(8-pyridin-2-ylmethyl-8-aza-bicyclo[3.2.1]oct-3-yl)-9H-xanthen-3-yl]-phenyl}-acetamide] gave a Ki of 49.9 nM.

`CCN(CC)C(=N)c1ccc2c(c1)Oc1ccccc1C2C1CC2CCC(C1)N2Cc1cccs1` (stereo not shown) [Compound 6m, N,N-Diethyl-9-(8-thiophen-2-ylmethyl-8-aza-bicyclo[3.2.1]oct-3-yl)-9H-xanthene-3-carboxamidine]: the affinity corresponds to a Ki of 162 nM. Against the preceding compound, the Ki is about 3.2-fold higher.

Compound `c1csc(CN2C3CCC2CC(C2c4ccccc4Oc4cc(-c5nnn[nH]5)ccc42)C3)c1` (stereo not shown) [Compound 7j, 3-[3-(1H-Tetrazol-5-yl)-9H-xanthen-9-yl]-8-thiophen-2-ylmethyl-8-aza-bicyclo[3.2.1]octane] registered a Ki of 13.8 nM.

As for `CC(=O)Nc1ccccc1-c1ccc2c(c1)Oc1c(O)cccc1C2C1CC2CCC(C1)N2Cc1ccccc1` (stereo not shown) [Compound 7l, N-{2-[9-(8-Benzyl-8-aza-bicyclo[3.2.1]oct-3-yl)-5-hydroxy-9H-xanthen-3-yl]-phenyl}-acetamide], the Ki was 21.8 nM.

Compound `CCN(CC)C(=N)c1ccc2c(c1)Oc1ccccc1C2C1CC2CCC(C1)N2Cc1ccccn1` (stereo not shown) [Compound 7m, N,N-Diethyl-9-(8-pyridin-2-ylmethyl-8-aza-bicyclo[3.2.1]oct-3-yl)-9H-xanthene-3-carboxamidine] yielded an inhibition constant Ki of 17.3 nM. The Ki values of the last two compounds are within 1.5-fold of each other.

Regarding `c1ccc(CN2C3CCC2CC(C2c4ccccc4Oc4cc(-c5nnn[nH]5)ccc42)C3)nc1` (stereo not shown) [Compound 8j, 8-Pyridin-2-ylmethyl-3-[3-(1H-tetrazol-5-yl)-9H-xanthen-9-yl]-8-aza-bicyclo[3.2.1]octane], the affinity, expressed as Ki, was 178 nM. This Ki lies about 10-fold higher than the previous one.

Turning to `CC(=O)Nc1ccccc1-c1ccc2c(c1)Oc1c(O)cccc1C2C1CC2CCC(C1)N2CCc1ccccc1` (stereo not shown) [Compound 8l, N-{2-[5-Hydroxy-9-(8-phenethyl-8-aza-bicyclo[3.2.1]oct-3-yl)-9H-xanthen-3-yl]-phenyl}-acetamide], the inhibitory constant (Ki) came out at 26.6 nM. Against the preceding compound, the Ki is about 6.7-fold lower.

`CCN(CC)C(=N)c1ccc2c(c1)Oc1ccccc1C2C1CC2CCC(C1)N2Cc1ccccc1` (stereo not shown) [Compound 8m, 9-(8-Benzyl-8-aza-bicyclo[3.2.1]oct-3-yl)-N,N-diethyl-9H-xanthene-3-carboxamidine] displayed an inhibition constant Ki of 349 nM.

Take `c1ccc(CN2C3CCC2CC(C2c4ccccc4Oc4cc(-c5nnn[nH]5)ccc42)C3)cc1` (stereo not shown) [Compound 9j, 8-Benzyl-3-[3-(1H-tetrazol-5-yl)-9H-xanthen-9-yl]-8-aza-bicyclo[3.2.1]octane]: the Ki came to 176 nM.

`Oc1cccc2c1Oc1cc(-c3cccnc3)ccc1C2C1CC2CCC(C1)N2Cc1ccoc1` (stereo not shown) [Compound 9k, 9-(8-Furan-3-ylmethyl-8-aza-bicyclo[3.2.1]oct-3-yl)-6-pyridin-3-yl-9H-xanthen-4-ol] returned a Ki of 50.3 nM.

With `CC(=O)Nc1ccccc1-c1ccc2c(c1)Oc1c(O)cccc1C2C1CC2CCC(C1)N2Cc1ncc[nH]1` (stereo not shown) [Compound 9l, N-(2-{5-Hydroxy-9-[8-(1H-imidazol-2-ylmethyl)-8-aza-bicyclo[3.2.1]oct-3-yl]-9H-xanthen-3-yl}-phenyl)-acetamide], the inhibition constant Ki was 4.9 nM.

Regarding `CCN(CC)C(=N)c1ccc2c(c1)Oc1ccccc1C2C1CC2CCC(C1)N2CCc1ccccc1` (stereo not shown) [Compound 9m, N,N-Diethyl-9-(8-phenethyl-8-aza-bicyclo[3.2.1]oct-3-yl)-9H-xanthene-3-carboxamidine], the affinity, expressed as Ki, was 903 nM.

Turning to `c1ccc(CCN2C3CCC2CC(C2c4ccccc4Oc4cc(-c5nnn[nH]5)ccc42)C3)cc1` (stereo not shown) [Compound 10j, 8-Phenethyl-3-[3-(1H-tetrazol-5-yl)-9H-xanthen-9-yl]-8-aza-bicyclo[3.2.1]octane], the Ki came out at 1150 nM.

Turning to `Oc1cccc2c1Oc1cc(-c3cccnc3)ccc1C2C1CC2CCC(C1)N2Cc1cccs1` (stereo not shown) [Compound 10k, 6-Pyridin-3-yl-9-(8-thiophen-2-ylmethyl-8-aza-bicyclo[3.2.1]oct-3-yl)-9H-xanthen-4-ol], the affinity corresponds to a Ki of 45.2 nM. Against the preceding compound, the Ki is about 25-fold lower.

In the case of `Oc1cccc2c1Oc1cc(-c3cccnc3)ccc1C2C1CC2CCC(C1)N2Cc1ccccn1` (stereo not shown) [Compound 11k, 6-Pyridin-3-yl-9-(8-pyridin-2-ylmethyl-8-aza-bicyclo[3.2.1]oct-3-yl)-9H-xanthen-4-ol], the affinity corresponds to a Ki of 3.05 nM.

Compound `Oc1cccc2c1Oc1cc(-c3cccnc3)ccc1C2C1CC2CCC(C1)N2Cc1ccccc1` (stereo not shown) [Compound 12k, 9-(8-Benzyl-8-aza-bicyclo[3.2.1]oct-3-yl)-6-pyridin-3-yl-9H-xanthen-4-ol] had an inhibition constant Ki of 39.4 nM.

As to `Oc1cccc2c1Oc1cc(-c3cccnc3)ccc1C2C1CC2CCC(C1)N2CCc1ccccc1` (stereo not shown) [Compound 13k, 9-(8-Phenethyl-8-aza-bicyclo[3.2.1]oct-3-yl)-6-pyridin-3-yl-9H-xanthen-4-ol], the Ki is 281 nM.

In the case of `c1cncc(-c2ccc3c(c2)Oc2ccccc2C3C2CC3CCC(C2)N3Cc2ncc[nH]2)c1` (stereo not shown) [Compound 26b, 8-(1H-Imidazol-2-ylmethyl)-3-(3-pyridin-3-yl-9H-xanthen-9-yl)-8-aza-bicyclo[3.2.1]octane], the Ki was 338 nM. The Ki values of the last two compounds are within 1.5-fold of each other.
